Measurements as given in patent US7625948B2, “Ester compound and medicinal use thereof” (Japan Tobacco Inc., priority 2002, dated 2009).
pIC50: −log10 of the molar value.

Biological target: T1, Microsomal triglyceride transfer protein (MTP) from bovine liver (Bos taurus, UniProt P55156)
T1 construct: from tissue; host or cells: bovine liver
T1 sequence (P55156 12-887): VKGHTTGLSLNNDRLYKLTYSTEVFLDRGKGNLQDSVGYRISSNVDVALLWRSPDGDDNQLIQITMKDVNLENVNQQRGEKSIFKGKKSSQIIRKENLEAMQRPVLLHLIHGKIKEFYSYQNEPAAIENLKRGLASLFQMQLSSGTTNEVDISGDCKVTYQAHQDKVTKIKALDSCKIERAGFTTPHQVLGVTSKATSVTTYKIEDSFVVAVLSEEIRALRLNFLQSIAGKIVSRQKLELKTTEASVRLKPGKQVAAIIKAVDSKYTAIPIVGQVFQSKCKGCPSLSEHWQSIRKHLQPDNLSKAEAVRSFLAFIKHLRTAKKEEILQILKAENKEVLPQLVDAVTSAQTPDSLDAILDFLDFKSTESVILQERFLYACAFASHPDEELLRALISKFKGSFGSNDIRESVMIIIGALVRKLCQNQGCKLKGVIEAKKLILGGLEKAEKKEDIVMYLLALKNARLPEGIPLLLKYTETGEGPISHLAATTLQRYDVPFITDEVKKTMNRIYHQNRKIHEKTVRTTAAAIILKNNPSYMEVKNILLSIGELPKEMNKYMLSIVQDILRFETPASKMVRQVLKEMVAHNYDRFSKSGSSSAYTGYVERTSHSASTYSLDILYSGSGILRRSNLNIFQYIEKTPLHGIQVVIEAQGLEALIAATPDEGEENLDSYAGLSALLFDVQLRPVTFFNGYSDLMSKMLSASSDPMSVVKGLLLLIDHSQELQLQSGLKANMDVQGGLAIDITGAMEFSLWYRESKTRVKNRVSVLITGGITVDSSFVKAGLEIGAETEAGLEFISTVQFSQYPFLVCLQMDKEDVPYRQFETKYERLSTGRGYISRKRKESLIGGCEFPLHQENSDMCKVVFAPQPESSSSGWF
T1 sequence (P05307 21-510 partner): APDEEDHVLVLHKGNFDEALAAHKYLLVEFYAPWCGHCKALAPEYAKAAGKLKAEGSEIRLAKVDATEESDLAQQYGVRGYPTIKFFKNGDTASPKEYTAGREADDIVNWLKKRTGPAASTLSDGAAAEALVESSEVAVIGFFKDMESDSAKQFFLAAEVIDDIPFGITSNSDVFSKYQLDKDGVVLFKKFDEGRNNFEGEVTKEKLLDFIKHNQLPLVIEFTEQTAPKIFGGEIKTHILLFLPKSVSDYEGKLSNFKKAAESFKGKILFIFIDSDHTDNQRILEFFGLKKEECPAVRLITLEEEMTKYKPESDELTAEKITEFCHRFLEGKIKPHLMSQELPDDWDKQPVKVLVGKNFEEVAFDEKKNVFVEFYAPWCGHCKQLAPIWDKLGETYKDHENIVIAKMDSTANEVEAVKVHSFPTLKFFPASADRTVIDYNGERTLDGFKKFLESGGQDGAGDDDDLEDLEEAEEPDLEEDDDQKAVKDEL
Assay: Test Example 1: inhibition of interliposomal triglyceride (TG) transfer activity by MTP (also used for metabolites in Test Example 8)
Format: biochemical
Details: MTP-mediated 14C-triolein transfer between liposomes, 37° C., one hour; read-out: Test Example 1 MTP inhibition IC50
Procedure, shortened: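 Partially purified bovine liver MTP (DEAE chromatography) incubated 1 h at 37 °C, pH 7.4, with ^14C-triolein-labelled donor SUVs and unlabelled acceptor SUVs plus compound in DMSO. Acceptor radioactivity, blank-corrected, gave % inhibition versus DMSO; IC50 derived. Metabolites tested likewise.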

**Q.** With CCNC(=O)C(COC(=O)Cc1ccc(NC(=O)c2ccccc2-c2ccc(C(F)(F)F)cc2)cc1)(C(=O)NCC)c1ccccc1 [Example 1, 4-[(4′-Trifluoromethylbiphenyl-2-carbonyl)amino]phenyl-acetic acid 2,2-bisethylcarbamoyl-2-phenylethyl ester] as the compound, how does the pIC50 read?
**A.** Its pIC50 is 9.22.

**Q.** How did the pIC50 turn out when CCOC(=O)C(COC(=O)Cc1ccc(OC(=O)c2ccccc2-c2ccc(C(F)(F)F)cc2)cc1)(C(=O)OCC)c1ccccc1 [Example 1-2, 2-Phenyl-2-{2-[4-(4′-trifluoromethylbiphenyl-2-carbonyloxy)phenyl]acetoxymethyl}malonic acid diethyl ester] was run?
**A.** The pIC50 was 7.38.

**Q.** CCNC(=O)C(COC(=O)Cc1ccc(NC(=O)c2ccccc2-c2ccc(C(F)(F)F)cc2)c(CC)c1)(C(=O)NCC)c1ccccc1 [Example 1-5, {3-Ethyl-4-[(4′-trifluoromethylbiphenyl-2-carbonyl)amino]phenyl}acetic acid 2,2-bisethylcarbamoyl-2-phenylethyl ester] was tested. Which pIC50 did it give?
**A.** Its pIC50 is 9.18.

**Q.** How did the pIC50 turn out when O=C(Cc1ccc(NC(=O)c2ccccc2-c2ccc(C(F)(F)F)cc2)cc1)OCC1(C(=O)NCC(F)(F)F)c2ccccc2-c2ccccc21 [Example 1-6] was run?
**A.** Its pIC50 is 8.92.

**Q.** O=C(Cc1ccc(NC(=O)c2ccccc2-c2ccc(C(F)(F)F)cc2)cc1)OCC(C(=O)NCC(F)(F)F)(C(=O)NCC(F)(F)F)c1ccccc1 [Example 1-12] was tested. Which pIC50 did it give?
**A.** Its pIC50 is 8.12.

**Q.** COC(=O)C(COC(=O)Cc1ccc(NC(=O)c2ccccc2-c2ccc(C(F)(F)F)cc2)cc1)(C(=O)OC)c1ccccc1 [Example 1-13] was tested. Which pIC50 did it give?
**A.** The pIC50 was 8.24.

**Q.** How did the pIC50 turn out when CCCNC(=O)C(COC(=O)Cc1ccc(NC(=O)c2ccccc2-c2ccc(C(F)(F)F)cc2)cc1)(C(=O)NCCC)c1ccccc1 [Example 1-35] was run?
**A.** Its pIC50 is 9.00.

**Q.** With CCNC(=O)C(COC(=O)Cc1ccc(NC(=O)c2ccccc2-c2ccc(C(F)(F)F)cc2)c(C(=O)N(C)C)c1)(C(=O)NCC)c1ccccc1 [Example 2, {3-Dimethylcarbamoyl-4-[(4′-trifluoromethylbiphenyl-2-carbonyl)amino]phenyl}acetic acid 2,2-bisethylcarbamoyl-2-phenylethyl ester] as the compound, how does the pIC50 read?
**A.** Its pIC50 is 9.21.

**Q.** CCCNC(=O)C(COC(=O)Cc1ccc(NC(=O)c2ccccc2-c2ccc(C(F)(F)F)cc2)c(C(=O)N(C)C)c1)(C(=O)NCCC)c1ccccc1 [Example 2-2] was tested. Which pIC50 did it give?
**A.** Its pIC50 is 8.85.

**Q.** CCNC(=O)C(COC(=O)Cc1ccc(NC(=O)c2ccccc2-c2ccc(C(F)(F)F)cc2)c(C(=O)NC)c1)(C(=O)NCC)c1ccccc1 [Example 2-3] was tested. Which pIC50 did it give?
**A.** The pIC50 was 8.68.

**Q.** CCNC(=O)C(CCOC(=O)Cc1ccc(NC(=O)c2ccccc2-c2ccc(C(F)(F)F)cc2)c(C(=O)N(C)C)c1)(C(=O)NCC)c1ccccc1 [Example 2-4] was tested. Which pIC50 did it give?
**A.** The pIC50 was 9.03.

**Q.** With CCOC(=O)C(COC(=O)Cc1ccc(NC(=O)c2ccccc2-c2ccc(C(F)(F)F)cc2)c(C(=O)N(C)C)c1)(C(=O)OCC)c1ccccc1 [Example 2-5] as the compound, how does the pIC50 read?
**A.** The pIC50 was 8.85.

**Q.** CCNC(=O)C(CCCOC(=O)Cc1ccc(NC(=O)c2ccccc2-c2ccc(C(F)(F)F)cc2)c(C(=O)N(C)C)c1)(C(=O)NCC)c1ccccc1 [Example 2-7] was tested. Which pIC50 did it give?
**A.** Its pIC50 is 8.96.

**Q.** CCOC(=O)C(COC(=O)Cc1ccc(NC(=O)c2ccccc2-c2ccc(C(F)(F)F)cc2)c(C(=O)N2CCCC2)c1)(C(=O)OCC)c1ccccc1 [Example 2-22] was tested. Which pIC50 did it give?
**A.** The pIC50 was 8.85.

**Q.** With COC(=O)C(COC(=O)Cc1ccc(NC(=O)c2ccccc2-c2ccc(C(F)(F)F)cc2)c(C(=O)N(C)C)c1)(C(=O)OC)c1ccccc1 [Example 2-39] as the compound, how does the pIC50 read?
**A.** The pIC50 was 9.13.

**Q.** With CCNC(=O)C(COC(=O)Cc1ccc(NC(=O)c2ccccc2-c2ccc(C(F)(F)F)cc2)c(OC)c1)(C(=O)NCC)c1ccccc1 [Example 3-3] as the compound, how does the pIC50 read?
**A.** The pIC50 was 9.40.

**Q.** With CCNC(=O)C(CCOC(=O)Cc1ccc(NC(=O)c2ccccc2-c2ccc(C(F)(F)F)cc2)c(OC)c1)(C(=O)NCC)c1ccccc1 [Example 3-6] as the compound, how does the pIC50 read?
**A.** The pIC50 was 8.30.

**Q.** With CCNC(=O)C(CCOC(=O)Cc1ccc(NC(=O)c2ccccc2-c2ccc(C(F)(F)F)cc2)c(OCC)c1)(C(=O)NCC)c1ccccc1 [Example 3-8] as the compound, how does the pIC50 read?
**A.** The pIC50 was 8.43.

**Q.** CCNC(=O)C(COC(=O)Cc1ccc(NC(=O)c2ccccc2-c2ccc(C(F)(F)F)cc2)c(OC(C)C)c1)(C(=O)NCC)c1ccccc1 [Example 3-10] was tested. Which pIC50 did it give?
**A.** The pIC50 was 8.57.
